Laboratory results published in US4151361A, “Prostaglandin derivatives” (American Home Products Corporation, priority 1978, dated 1979).

Test system: bronchoconstricting effects of a standard dose of acetylcholine
Experiment: bronchodilation upon aerosol inhalation (inhibition of acetylcholine bronchoconstriction), method of Rosenthale et al.
Format: in vivo
Details: guinea pig, i.v. acetylcholine dose producing ca. 30% bronchoconstriction
Description: In using the compounds of the invention to produce bronchodilating effects in warm-blooded animals, they may be administered in a variety of dosage forms: oral, injectable, and aerosol inhalation. Aerosol inhalation is a preferred method because of its rapid onset of action, great potency, and specificity of action. The particular dosage to obtain the bronchodilating effect will vary with the particular compound employed, the particular animal involved, and the degree of bronchodilation desired. In the guinea pig, by aerosol inhalation, the dose to produce bronchodilation is from about 0.15 micrograms to about 25 micrograms, and preferably from about 0.15 to about 15 micrograms. The bronchodilation produced upon aerosol inhalation can be observed by the method of Rosenthale et al., J. Pharmacol. Exp. Ther., 178, 541 (1971). Using this procedure the following results were obtained:
*The dose (i.v.) of acetylcholine which produces a ca. 30%

SMILES | Percent Inhibition of the Bronchoconstricting effects of a standard dose of acetylcholine (dose .0015 μg) [%] | Percent Inhibition of the Bronchoconstricting effects of a standard dose of acetylcholine (dose .015 μg) [%] | Percent Inhibition of the Bronchoconstricting effects of a standard dose of acetylcholine (dose .15 μg) [%] | Percent Inhibition of the Bronchoconstricting effects of a standard dose of acetylcholine (dose 1.5 μg) [%] | Percent Inhibition of the Bronchoconstricting effects of a standard dose of acetylcholine (dose 15 μg) [%]
C#C[C@](O)(CCCCC)CC[C@H]1[C@H](O)CC(=O)[C@@H]1CCCCCCC(=O)O [tetrahydro-15β-ethynyl-PGE2, 15β-ethynyl-tetrahydro-PGE2] | 58 | 95 | 98 |  | 
C#CC(O)(CCCCC)CC[C@H]1[C@H](O)CC(=O)[C@@H]1C/C=C\CCCC(=O)O (stereo partly shown) [13,14-dihydro-15-ethynyl-PGE2, 13,14-Dihydro-15-Ethynyl-PGE2] |  | 94 | 96 | 100 | 91
C#CC(O)(CCCCC)CC[C@@H]1[C@@H](C/C=C\CCCC(=O)O)[C@H](O)C[C@H]1O (stereo partly drawn) [13,14-dihydro-15-ethynyl-PGF2β, 13,14-Dihydro-15-Ethynyl PGF2β] |  |  |  | 44 | 63
C#CC(O)(CCCCC)CC[C@H]1[C@H](O)CC(=O)[C@@H]1CCCCCCC(=O)O (stereo partly shown) [tetrahydro-15-ethynyl-PGE2, 15-Ethynyl-Tetrahydro-PGE2] | 51 | 86 | 99 | 100 | 
